Data as given in patent US20250289827A1, “MORPHIC FORMS OF A MUTANT BRAF DEGRADER AND METHODS OF MANUFACTURE THEREOF” (C4 THERAPEUTICS, INC., priority 2022, published 2025).

Assays:
[1] = Salt screening by re-slurry; type: physicochemical
[2] = Crystallization by vapor diffusion; type: physicochemical
Description: About 50 mg of Compound 1 Form A was dissolved in the minimal amount of selected solvents at ambient temperature (about 20-25° C.). Obtained solutions were filtered through a 0.45 μm syringe membrane filter. […] Then these 8 mL lid less vials were placed to 40 mL glass vials. To the 40 mL vials were added anti-solvents. Then these 40 mL vials were capped tightly and placed at ambient condition for up to 21 days. Precipitates were collected by centrifugation filtration through a 0.45 μm nylon membrane filter at 14,000 rpm. Solid parts (wet cakes) were investigated by XRPD.

[3] = Equilibration with solvents at 25° C. for 4 weeks (XRPD); type: physicochemical
Description: About 50 mg of Compound 1 free Form A was equilibrated in 0.1-1 mL of solvents at 25° C. for 4 weeks with a stirring bar on a magnetic stirring plate at a rate of 300 rpm. The obtained suspensions were filtered through a 0.45 μm nylon membrane filter by centrifugation at 14,000 rpm. Solid parts (wet cakes) were investigated by XRPD.

[4] = Crystallization by addition of anti-solvent; type: physicochemical
Description: About 50 mg of Compound 1 Form A was dissolved in the minimal amount of selected good solvents at ambient temperature (about 20-25° C.). Obtained solutions were filtered through a 0.45 μm syringe membrane filter. […] Precipitates were collected by centrifugation filtration through a 0.45 μm nylon membrane filter at 14,000 rpm. Solid parts (wet cakes) were investigated by XRPD.

[5] = Crystallization from hot saturated solutions by slow cooling; type: physicochemical; details: for Result: slow cooling
Description: About 50 mg of Compound 1 Form A was dissolved in the minimal amount of selected solvents at 50° C. Obtained solutions were filtered through a 0.45 μm syringe membrane filter. […] Samples without precipitates at 5° C. were further cooled to −20° C. Precipitates were collected by centrifugation filtration through a 0.45 μm nylon membrane filter at 14,000 rpm. Solid parts (wet cakes) were investigated by XRPD.
Obtained solutions were filtered through a 0.45 μm syringe membrane filter. […] Obtained suspensions were cooled to 5° C. at 0.1° C./min and kept at 5° C. for about 12 h. Precipitates were collected by centrifugation filtration through a 0.45 μm nylon membrane filter at 14,000 rpm. Solid parts (wet cakes) were investigated by XRPD.

[6] = system: ERK phosphorylation; assay: Inhibition of ERK phosphorylation in A375 cells; type: cell-based; details: Homo sapiens, A-375, 24 hr
[7] = system: A375 cells; assay: A375 cell growth inhibition; type: cell-based; details: Homo sapiens, A-375, 96 hr
[8] = Solubility in spray drying solvent system; type: physicochemical; details: 80:20 dichloromethane:methanol, organic solvent or mixture
Text: The stability of the SDI was supported by XRPD and HPLC purity and assay data. The secondary drying parameters were established to ensure adequate SDI stability during drying and that the ICH limits for residual dichloromethane and methanol can be met. Through a feasibility batch and an engineering batch, an SDI manufacturing process is established.

[9] = Acetone/water (v:v = 86:14) a.w. = 0.6
[10] = Acetonitrile/water (v:v = 96:4) a.w. = 0.6
[11] = DMF/water (v:v = 73:27) a.w. = 0.6
[12] = Methanol/water (v:v = 69:31) a.w. = 0.6
[13] = THF/water (v:v = 82:18) a.w. = 0.9
[14] = THF/water (v:v = 92:8) a.w. = 0.6
[15] = Acetone (3) / anti-solvent Heptane (2) mL

Compound: CCN(C)S(=O)(=O)Nc1ccc(F)c(Oc2ccc3ncn([C@H]4COC5(CCN(C(=O)CC6(O)CCN(c7cc8c(cc7F)c(N7CCC(=O)NC7=O)nn8C)CC6)CC5)C4)c(=O)c3c2)c1C#N [Compound 1 Form A]
- Re-slurry result ([1]; Ca(OH)2, Ethyl Acetate): Almost amorphous
- Re-slurry result ([1]; Choline, Ethyl Acetate): Sticky material
- Re-slurry result ([1]; Choline, MTBE): Sticky material
- Re-slurry result ([1]; Choline, Toluene): Sticky material
- Re-slurry result ([1]; Methylglucamine, Ethyl Acetate): Form A
- Results ([2]; 2-MeTHF (8.0) / MTBE (32.0) mL): Few solids
- Results ([2]; Acetone (2.5) / MTBE (10.0) mL): Oil material
- Results ([2]; Acetonitrile (3.0) / MTBE (12.0) mL): Oil material
- Results ([2]; DMSO (0.2) / Ethanol (0.8) mL): Oil material
- Comments ([3]; 1,4-Dioxane/heptane (v:v = 1:1)): Sticky material
- Comments ([3]; 2-MeTHF): Medium crystallinity
- XRPD (solid form after equilibration) ([3]; 2-MeTHF): Form C
- Comments ([3]; Acetone): Medium crystallinity
- XRPD (solid form after equilibration) ([3]; Acetone): Form B
- XRPD (solid form after equilibration) ([3]; Acetone/water (v:v = 36:64) a.w. = 0.9): Almost amorphous
- Comments [3, 9]: Clear solution
- Comments: concentration of clear solution [3, 9]: (about 500 mg/mL)
- Comments ([3]; Acetonitrile): Medium crystallinity
- XRPD (solid form after equilibration) ([3]; Acetonitrile): Form B
- Comments ([3]; Acetonitrile/water (v:v = 42:58) a.w. = 0.9): Sticky material
- Comments (crystallinity) [3, 10]: Medium
- XRPD (solid form after equilibration) [3, 10]: Form B
- Comments ([3]; DCM/heptane (v:v = 1:1)): Sticky material
- Comments ([3]; DCM/methanol (v:v = 1:1)): Clear solution
- Comments: concentration of clear solution ([3]; DCM/methanol (v:v = 1:1)): (about 500 mg/mL)
- Comments ([3]; DMF): Clear solution
- Comments: concentration of clear solution ([3]; DMF): (about 500 mg/mL)
- XRPD (solid form after equilibration) ([3]; DMF/water (v:v = 30:70) a.w. = 0.9): Almost amorphous
- Comments [3, 11]: Clear solution
- Comments: concentration of clear solution [3, 11]: (about 500 mg/mL)
- XRPD (solid form after equilibration) ([3]; DMSO/water (v:v = 23:77) a.w. = 0.9): Almost amorphous
- XRPD (solid form after equilibration) ([3]; DMSO/water (v:v = 57:43) a.w. = 0.6): Almost amorphous
- Comments ([3]; Ethanol): Low crystallinity
- XRPD (solid form after equilibration) ([3]; Ethanol): Form A
- Comments ([3]; Ethyl acetate): Medium crystallinity
- XRPD (solid form after equilibration) ([3]; Ethyl acetate): Form C*
- Comments ([3]; Isopropanol): Low crystallinity
- XRPD (solid form after equilibration) ([3]; Isopropanol): Form A
- Comments ([3]; Isopropyl acetate): Low crystallinity
- XRPD (solid form after equilibration) ([3]; Isopropyl acetate): Form A
- Comments ([3]; MTBE): Low crystallinity
- XRPD (solid form after equilibration) ([3]; MTBE): Form A
- Comments ([3]; Methanol): Low crystallinity
- XRPD (solid form after equilibration) ([3]; Methanol): Form B
- XRPD (solid form after equilibration) ([3]; Methanol/water (v:v = 22:78) a.w. = 0.9): Almost amorphous
- Comments [3, 12]: Low crystallinity
- XRPD (solid form after equilibration) [3, 12]: Form B
- Comments ([3]; Methyl ethyl ketone): Medium crystallinity
- XRPD (solid form after equilibration) ([3]; Methyl ethyl ketone): Form B
- Comments ([3]; THF/heptane (v:v = 1:1)): Medium crystallinity
- XRPD (solid form after equilibration) ([3]; THF/heptane (v:v = 1:1)): Form B
- Comments [3, 13]: Clear solution
- Comments: concentration of clear solution [3, 13]: (about 500 mg/mL)
- Comments [3, 14]: Clear solution
- Comments: concentration of clear solution [3, 14]: (about 500 mg/mL)
- Comments ([3]; Toluene): Low crystallinity
- XRPD (solid form after equilibration) ([3]; Toluene): Form A
- Results (After 2 hours) ([4]; 1,4-Dioxane (0.1) / anti-solvent Water (0.2) mL): Sticky material
- Results (After 2 hours) [4, 15]: Low crystallinity
- XRPD [4, 15]: Form A
- Results (After 2 hours) ([4]; DCM (0.2) / anti-solvent Heptane (0.2) mL): Sticky material
- Results (After 2 hours) ([4]; THF (0.2) / anti-solvent Water (0.2) mL): Oil material
- XRPD ([5]; slow cooling with Form B seeds, Acetone): Form B
- Result ([5]; Acetone/water (v:v = 1:1)): Sticky material
- Result ([5]; Acetone, placed at −20° C. for 11 days): for 11 days: clear solution
- Result ([5]; Acetonitrile/water (v:v = 1:1), placed at −20° C. for 11 days): for 11 days: clear solution
- Result ([5]; Acetonitrile, placed at −20° C. for 11 days): for 11 days: clear solution
- Result ([5]; DCM): Sticky material
- Result ([5]; Ethanol, placed at −20° C. for 10 days): for 10 days: few solids
- Result ([5]; Ethyl acetate, placed at −20° C. for 11 days): for 11 days: clear solution
- Result ([5]; Methyl ethyl ketone, placed at −20° C. for 11 days): for 11 days: clear solution
- Result ([5]; THF): Oil material
- Result ([5]; THF/water (v:v = 1:1), placed at −20° C. for 11 days): for 11 days: clear solution

Compound: CCN(C)S(=O)(=O)Nc1ccc(F)c(Oc2ccc3ncn([C@H]4COC5(CCN(C(=O)CC6(O)CCN(c7cc8c(cc7F)c(N7CCC(=O)NC7=O)nn8C)CC6)CC5)C4)c(=O)c3c2)c1C#N [Compound 1, (3R)-3-[6-[2-cyano-3-[[ethyl(methyl)sulfamoyl]amino]-6-fluorophenoxy]-4-oxoquinazolin-3-yl]-8-[2-[1-[3-(2,4-dioxo-1,3-diazinan-1-yl)-5-fluoro-1-methylindazol-6-yl]-4-hydroxypiperidin-4-yl]acetyl]-1-oxa-8-azaspiro[4.5]decane]
- IC50 [6]: 11 nM
- GI50 [7]: 94 nM
- solubility [8]: > 100 mg/mL
